Measured values taken from PubChem BioAssay AID1963872 (Molecular Pharmacology Branch, DTP, NCI, 2024).

System: KRAS patient-derived spheroids with HUVEC/MSC, viability
Assay: Anticancer human tumor 519858-162-T-J1-PDC patient-derived colon adenocarcinoma cell line growth inhibition [KRAS2]
Conditions: for IC50: curve of first compound; for viability, T/C: stronger effect = lower value
From the text: Multicellular complex tumor spheroid response to RAS pathway inhibitors in combination with a targeted agents in patient-derived cell lines with oncogenic KRAS variants from multiple cancer types
A high-throughput screen of multi-cell type tumor spheroids was designed to identify active combinations of targeted small molecules and KRAS pathway inhibitors. Complex spheroids include a stromal component modeled by human endothelial cells (HUVEC) and fibroblasts modeled by human mesenchymal stem cells (MSCs). The concentration ranges selected for each drug and investigational agent were based upon clinically achievable concentrations if the clinical Cmax of the agent was known.
Compounds. The drugs and investigational agents: BI-3406 (NSC825286), BAY-293 (NSC824723), batoprotafib (TNO155; NSC825523), sotorasib (AMG 510; NSC818433), MRTX1257 (NSC819558), elimusertib (BAY 1895344; NSC800525), molibresib (GSK525762; NSC774829), temuterkib (LY3214996; NSC803410), venetoclax (NSC766270), alisertib (NSC759677), olaparib (NSC753686), talazoparib (NSC767125), erdafitinib (NSC781556), ipatasertib (NSC767898), cabozantinib (NSC761068), nintedanib (NSC756659), abemaciclib (NSC768073), docetaxel (NSC628503), trametinib (NSC758246), and sapanisertib (NSC764658) were obtained from the National Cancer Institute (NCI) Developmental Therapeutics Program Chemical Repository. The FDA-approved anticancer drug set is available from the Developmental Therapeutics Program. […] The stock solutions were prepared in dimethyl sulfoxide (DMSO, Sigma-Aldrich, St. Louis, MO, cat. D2650) at 800-fold the tested concentration and stored at -70 degrees C prior to their use. All drugs and investigational agents were tested over a range starting from a high concentration at or near the clinical Cmax and decreasing in half-log increments. If the clinical Cmax for an agent had not been determined, the highest concentration tested was 10 microM.
Cell Culture. All cells were maintained in an incubator at 37 degrees C and 5% CO2 with 95% humidity. The PDC lines were cultured according to standard operating procedures established by the NCI PDMR (https://pdmr.cancer.gov/sops/default.htm). Briefly, all PDCs were thawed and cultured in Matrigel-coated flasks prepared with a working solution of 1X Ham's F-12 nutrient mix, without supplementation (Invitrogen, Waltham, MA, cat. 11765054), 100 U/mL penicillin-streptomycin (Invitrogen, cat. 15140122), and 2.5% Matrigel (Corning Inc., Corning, NY, cat. 354248) for the first three passages. All PDCs were cultured in complete DMEM/F-12 media containing advanced DMEM/F-12 (Invitrogen, cat. 12634028), 4.9% defined fetal bovine serum, heat inactivated (HyClone Laboratories Inc., Logan, UT, cat. SH30070.03HI), 389 ng/mL hydrocortisone (Sigma-Aldrich, cat. H4001), 9.7 ng/mL human EGF recombinant protein (Invitrogen, cat. PHG0313), 23.4 microg/mL adenine (Sigma-Aldrich, cat. A2786), 97.3 U/mL penicillin-streptomycin (Invitrogen, cat. 15140122), 1.9 mM L-glutamine (Invitrogen, cat. 25030081), and 9.7 microM Y-27632 dihydrochloride (Tocris Bioscience, Bristol, United Kingdom, cat. 1254). The PDCs were cultured in complete DMEM/F12 media without 9.7 microM Y-27632 dihydrochloride for at least two passages prior to the screen. The established cell line HOP-62 was cultured in RPMI 1640 medium, HEPES (Invitrogen, cat. 22400105) with 10% defined fetal bovine serum (HyClone Laboratories Inc., cat. SH30070.03) and 2 mM L-glutamine (Invitrogen, cat. 25030081). The pooled donor HUVEC were cultured in endothelial cell growth medium 2 (PromoCell, Heidelberg, Germany, cat. C-22011) and the hMSC were cultured in mesenchymal stem cell growth medium 2 (PromoCell, cat. C-28009). For all experiments, HUVEC and hMSC were used at passages </=5, while the malignant cell lines were used at passages </=15. […]

[1] = second compound 0.1 µM, first compound 0.0316 µM
[2] = second compound 0.1 µM, first compound 0.1 µM
[3] = second compound 0.1 µM, first compound 0.316 µM
[4] = second compound 0.1 µM, first compound 1 µM
[5] = second compound 0.1 µM, first compound 3.16 µM
[6] = second compound 0.1 µM, first compound 10 µM
[7] = second compound 0.316 µM, first compound 0.0316 µM
[8] = second compound 0.316 µM, first compound 0.1 µM
[9] = second compound 0.316 µM, first compound 0.316 µM
[10] = second compound 0.316 µM, first compound 1 µM
[11] = second compound 0.316 µM, first compound 3.16 µM
[12] = second compound 0.316 µM, first compound 10 µM
[13] = second compound 1 µM, first compound 0.0316 µM
[14] = second compound 1 µM, first compound 0.1 µM
[15] = second compound 1 µM, first compound 0.316 µM
[16] = second compound 1 µM, first compound 1 µM
[17] = second compound 1 µM, first compound 3.16 µM
[18] = second compound 1 µM, first compound 10 µM
[19] = second compound 3.16 µM, first compound 0.0316 µM
[20] = second compound 3.16 µM, first compound 0.1 µM
[21] = second compound 3.16 µM, first compound 0.316 µM
[22] = second compound 3.16 µM, first compound 1 µM
[23] = second compound 3.16 µM, first compound 3.16 µM
[24] = second compound 3.16 µM, first compound 10 µM
[25] = second compound 10 µM, first compound 0.0316 µM
[26] = second compound 10 µM, first compound 0.1 µM
[27] = second compound 10 µM, first compound 0.316 µM
[28] = second compound 10 µM, first compound 1 µM
[29] = second compound 10 µM, first compound 3.16 µM
[30] = second compound 10 µM, first compound 10 µM
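Note: compound exposure lasted seven days before readout.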
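Throughout, for viability, T/C: 100% = DMSO vehicle control viability.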

Structure (SMILES)	IC50 (second compound 0.1 µM) [µM]	IC50 (second compound 0.316 µM) [µM]	IC50 (second compound 1 µM) [µM]	IC50 (second compound 3.16 µM) [µM]	viability, T/C [1] [%]	viability, T/C [2] [%]	viability, T/C [3] [%]	viability, T/C [4] [%]	viability, T/C [5] [%]	viability, T/C [6] [%]	viability, T/C [7] [%]	viability, T/C [8] [%]	viability, T/C [9] [%]	viability, T/C [10] [%]	viability, T/C [11] [%]	viability, T/C [12] [%]	viability, T/C [13] [%]	viability, T/C [14] [%]	viability, T/C [15] [%]	viability, T/C [16] [%]	other results
COc1cc2nccc(Oc3ccc(NC(=O)C4(C(=O)Nc5ccc(F)cc5)CC4)cc3)c2cc1OC + CNCc1ccccc1-c1csc(C(C)Nc2nc(C)nc3cc(OC)c(OC)cc23)c1	> 10	> 10	> 10	3.46	92.8	93.2	81.7	94	107	146	91.4	96.5	88	90.1	98.1	132	67.1	81.8	61.6	50.1	IC50 (second compound 10 µM): < 0.0316 µM; viability, T/C [17]: 106%; viability, T/C [18]: 100%; viability, T/C [19]: 39.9%; viability, T/C [20]: 55.6%; viability, T/C [21]: 44.5%; viability, T/C [22]: 38.1%; viability, T/C [23]: 95%; viability, T/C [24]: 0.54%; viability, T/C [25]: 1.01%; viability, T/C [26]: 0.42%; viability, T/C [27]: 0.68%; viability, T/C [28]: 1.44%; viability, T/C [29]: 0.37%; viability, T/C [30]: 0.36%
COC(=O)c1ccc2c(C(=Nc3ccc(N(C)C(=O)CN4CCN(C)CC4)cc3)c3ccccc3)c(O)[nH]c2c1 + C=CC(=O)N1CCN(c2nc(=O)n(-c3c(C)ccnc3C(C)C)c3nc(-c4c(O)cccc4F)c(F)cc23)C(C)C1	> 10	> 10	> 10	> 10	121	86.2	85.9	101	102	91.1	106	83.8	77.8	76.2	89.4	94.1	89.4	67.9	111	90.7	IC50 (second compound 10 µM): > 10 µM; viability, T/C [17]: 76%; viability, T/C [18]: 60.1%; viability, T/C [19]: 96.9%; viability, T/C [20]: 75.1%; viability, T/C [21]: 82.8%; viability, T/C [22]: 66.3%; viability, T/C [23]: 70.7%; viability, T/C [24]: 84.2%; viability, T/C [25]: 72.9%; viability, T/C [26]: 74.3%; viability, T/C [27]: 60.1%; viability, T/C [28]: 80.4%; viability, T/C [29]: 101%; viability, T/C [30]: 75.3%
CC(C)NCC(C(=O)N1CCN(c2ncnc3c2C(C)CC3O)CC1)c1ccc(Cl)cc1 (stereo not given) + C=CC(=O)N1CCN(c2nc(OCC3CCCN3C)nc3c2CCN(c2cccc4cccc(C)c24)C3)CC1CC#N	> 10	> 10	> 10	1.93	95.2	91.6	78.4	78	90.3	74.6	64.7	84.2	75.5	90	82.5	87	72	72.2	48.3	70.5	IC50 (second compound 0.0316 µM): > 10 µM; viability, T/C (second compound 0.0316 µM, first compound 0.0316 µM): 84.8%; viability, T/C (second compound 0.0316 µM, first compound 0.1 µM): 84.9%; viability, T/C (second compound 0.0316 µM, first compound 0.316 µM): 79.5%; viability, T/C (second compound 0.0316 µM, first compound 1 µM): 85.4%; viability, T/C (second compound 0.0316 µM, first compound 3.16 µM): 85.9%; viability, T/C (second compound 0.0316 µM, first compound 10 µM): 77.5%; viability, T/C [17]: 81.9%; viability, T/C [18]: 83.3%; viability, T/C [19]: 70.9%; viability, T/C [20]: 55.8%; viability, T/C [21]: 80.8%; viability, T/C [22]: 55.1%; viability, T/C [23]: 50.7%; viability, T/C [24]: 41.5%
